From patent US7524853B2 (Solvay Pharmaceuticals B.V., priority 2003, dated 2009)

What was measured:
Assay type in all cases: cell-based
[1] = target: T1, 17β-hydroxysteroid dehydrogenase type 2 (17β-HSD type 2) (Homo sapiens, UniProt P37059); experiment: Inhibition of 17β-HSD type 2 in MCF-7 cells stably expressing the isoenzyme (tritium labeled estradiol conversion, HPLC); details: MCF-7 cells expressing 17β-HSD type 2, 2 nM tritium labeled estradiol; for inhibition at 1 µM / inhibition at 10 µM: MCF7; for inhibition at 1 µM / % Inhibition HSD2 1 μM: 1 μM test compound; for inhibition at 1 µM: read-out: % Inhibition HSD2 1 μM; for inhibition at 10 µM / % Inhibition HSD2 10 μM: 10 μM test compound; for inhibition at 10 µM: read-out: % Inhibition HSD2 10 μM
T1 construct: expressed in transfected cells; host or cells: MCF-7
T1 sequence (P37059 1-387): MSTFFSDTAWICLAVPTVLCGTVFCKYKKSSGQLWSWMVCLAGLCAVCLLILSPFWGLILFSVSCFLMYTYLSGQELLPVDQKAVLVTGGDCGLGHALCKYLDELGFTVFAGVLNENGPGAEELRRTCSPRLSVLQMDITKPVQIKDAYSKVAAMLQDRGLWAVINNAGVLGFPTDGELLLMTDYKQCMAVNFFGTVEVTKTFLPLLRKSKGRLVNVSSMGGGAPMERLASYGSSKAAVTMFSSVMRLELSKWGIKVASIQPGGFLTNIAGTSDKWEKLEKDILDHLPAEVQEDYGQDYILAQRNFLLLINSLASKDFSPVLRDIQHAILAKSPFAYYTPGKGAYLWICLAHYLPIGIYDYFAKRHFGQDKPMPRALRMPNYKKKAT
Procedure, shortened: (§1)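 Each isoenzyme was stably expressed in its own MCF-7 line, and cells were incubated in growth medium with test compound and 2 nM tritiated substrate: estrone (type 1), estradiol (type 2), androstenedione (type 3). Medium was sampled after a fixed time, TCA-stopped, and analysed by HPLC-flow scintillation; inhibition versus compound-free control, two compound concentrations.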

[2] = target: T2, 17β-hydroxysteroid dehydrogenase type 3 (17β-HSD type 3) (Homo sapiens, UniProt P37058); experiment: Inhibition of 17β-HSD type 3 in MCF-7 cells stably expressing the isoenzyme (tritium labeled androstenedione conversion, HPLC); details: MCF-7 cells expressing 17β-HSD type 3, 2 nM tritium labeled androstenedione; for inhibition at 1 µM / inhibition at 10 µM: MCF7; for inhibition at 1 µM / % Inhibition HSD3 1 μM: 1 μM test compound; for inhibition at 1 µM: read-out: % Inhibition HSD3 1 μM; for inhibition at 10 µM / % Inhibition HSD3 10 μM: 10 μM test compound; for inhibition at 10 µM: read-out: % Inhibition HSD3 10 μM
T2 construct: expressed in transfected cells; host or cells: MCF-7
T2 sequence (P37058 1-310): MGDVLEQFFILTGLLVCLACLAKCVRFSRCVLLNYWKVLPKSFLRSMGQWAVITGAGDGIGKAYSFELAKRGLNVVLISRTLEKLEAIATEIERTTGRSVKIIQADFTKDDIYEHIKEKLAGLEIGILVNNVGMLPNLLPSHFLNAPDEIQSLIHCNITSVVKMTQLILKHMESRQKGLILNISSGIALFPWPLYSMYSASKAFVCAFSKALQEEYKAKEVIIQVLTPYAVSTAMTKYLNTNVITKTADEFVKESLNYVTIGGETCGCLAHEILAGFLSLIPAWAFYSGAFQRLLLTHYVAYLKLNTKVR
Procedure, shortened: as §1

[3] = target: T3, 17β-hydroxysteroid dehydrogenase type 1 (17β-HSD type 1) (Homo sapiens, UniProt P14061); experiment: Inhibition of 17β-HSD type 1 in MCF-7 cells stably expressing the isoenzyme (tritium labeled estrone conversion, HPLC); details: MCF-7 cells expressing 17β-HSD type 1, 2 nM tritium labeled estrone; for inhibition at 1 µM / inhibition at 10 µM: MCF7; for inhibition at 1 µM / % Inhibition HSD1 1 μM: 1 μM test compound; for inhibition at 1 µM: read-out: % Inhibition HSD1 1 μM; for inhibition at 10 µM / % Inhibition HSD1 10 μM: 10 μM test compound; for inhibition at 10 µM: read-out: % Inhibition HSD1 10 μM
T3 construct: expressed in transfected cells; host or cells: MCF-7
T3 sequence (P14061 1-328): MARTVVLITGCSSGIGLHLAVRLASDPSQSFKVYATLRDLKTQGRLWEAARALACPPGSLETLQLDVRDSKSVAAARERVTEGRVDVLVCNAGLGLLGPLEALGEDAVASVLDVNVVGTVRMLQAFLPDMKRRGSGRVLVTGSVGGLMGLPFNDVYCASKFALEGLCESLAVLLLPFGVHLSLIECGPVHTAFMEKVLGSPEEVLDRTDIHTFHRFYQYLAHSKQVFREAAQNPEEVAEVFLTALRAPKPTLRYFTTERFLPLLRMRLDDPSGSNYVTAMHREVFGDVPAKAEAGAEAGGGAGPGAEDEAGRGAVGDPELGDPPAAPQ
Procedure, shortened: as §1

inhibition at 1 µM [1] [%] | inhibition at 10 µM [1] [%] | inhibition at 1 µM [2] [%] | inhibition at 10 µM [2] [%] | inhibition at 1 µM [3] [%] | inhibition at 10 µM [3] [%] | % Inhibition HSD2 1 μM [1] [%] | % Inhibition HSD2 10 μM [1] [%] | % Inhibition HSD3 1 μM [2] [%] | % Inhibition HSD3 10 μM [2] [%] | % Inhibition HSD1 1 μM [3] [%] | % Inhibition HSD1 10 μM [3] [%] | SMILES
9.2 | 11 | 24.7 | 10.5 | 24.6 | 63.3 | – | – | – | – | – | – | COc1cc(-c2nc3sc4c(c3c(=O)n2Cc2ccccc2)C(C)CCC4=O)cc(OC)c1OC (stereo not drawn) [No. 684, 3-Benzyl-5-methyl-2-(3,4,5-trimethoxyphenyl)-6,7-dihydro-3H,5H-benzo[4,5]thieno[2,3-d]pyrimidin-4,8-dione]
-4.9 | 0 | 4.7 | 6.3 | 17.9 | 25.9 | – | – | – | – | – | – | CCC(C)Cn1c(-c2cc(OC)c(OC)c(OC)c2Br)nc2sc3c(c2c1=O)CCC(Br)(Br)C3=O (stereo not drawn) [No. 128, 7,7-Dibromo-2-(2-bromo-3,4,5-trimethoxyphenyl)-3-(2-methylbutyl)-6,7-dihydro-3H,5-benzo[4,5]thieno[2,3-d]pyrimidine-4,8-dione]
-0.4 | 5.7 | 4.8 | 29.3 | 40.3 | 91.3 | – | – | – | – | – | – | CCC(C)Cn1c(-c2cc(OC)c(OC)c(OC)c2)nc2sc3c(c2c1=O)CCC(Br)C3=O (stereo not drawn) [No. 127, 7-Bromo-3-(2-methylbutyl)-2-(3,4,5-trimethoxyphenyl)-6,7-dihydro-3H,5H-benzo[4,5]thieno[2,3-d]pyrimidine-4,8-dione]
6.2 | 10.5 | 8 | 24.1 | 32.8 | 52.7 | – | – | – | – | – | – | CCC(C)Cn1c(-c2cc(OC)c(OC)c(OC)c2Cl)nc2sc3c(c2c1=O)CCC(Cl)(Cl)C3=O (stereo not drawn) [No. 142, 7,7-Dichloro-2-(2-chloro-3,4,5-trimethoxyphenyl)-3-(2-methylbutyl)-6,7-dihydro-3H,5H-benzo[4,5]thieno[2,3-d]pyrimidine-4,8-dione]
– | – | – | – | – | – | 48.8 | 75.5 | 21.7 | 22.7 | 17.2 | 29.1 | COCc1nc2sc3c(O)cccc3c2c(=O)n1CCc1cccs1 [No. 645]
22.7 | 19.9 | 5.1 | 13.8 | 16.6 | 31.2 | – | – | – | – | – | – | COc1cc(-c2nc3sc4c(c3c(=O)n2Cc2ccccc2)C(C)CC(Br)C4=O)c(Br)c(OC)c1OC (stereo not drawn) [No. 685, 3-Benzyl-7-bromo-2-(2-bromo-3,4,5-trimethoxyphenyl)-5-methyl-6,7-dihydro-3H,5H-benzo[4,5]thieno[2,3-d]pyrimidine-4,8-dione]
34.6 | 29.9 | 31 | 59.8 | 17.8 | 18.3 | – | – | – | – | – | – | O=c1c2c(nc(-c3cccs3)n1CCO)sc1c(O)c(Br)ccc12 [No. 149, 7-Bromo-8-hydroxy-3-(2-hydroxyethyl)-2-thiophen-2-yl-3H-benzo[4,5]thieno[2,3-d]pyrimidin-4-one]
2.1 | 4.3 | -1.1 | 7.1 | 2.1 | 15 | – | – | – | – | – | – | COc1cc(-c2nc3sc4c(O)ccc(C)c4c3c(=O)n2Cc2ccccc2)c(Br)c(OC)c1OC [No. 686, 3-Benzyl-2-(2-bromo-3,4,5-trimethoxyphenyl)-8-hydroxy-5-methyl-3H-benzo[4,5]thieno[2,3-d]pyrimidin-4-one]
– | – | – | – | – | – | 20.1 | 43.3 | 23.4 | 46.1 | 15.7 | 34.2 | O=c1c2c(nc(CCC3CCCC3)n1CCc1cccs1)sc1c(O)cccc12 [No. 643]

The next lines start with the compound.

SMILES | inhibition at 1 µM [1] [%] | inhibition at 10 µM [1] [%] | inhibition at 1 µM [2] [%] | inhibition at 10 µM [2] [%] | inhibition at 1 µM [3] [%] | inhibition at 10 µM [3] [%] | % Inhibition HSD2 1 μM [1] [%] | % Inhibition HSD2 10 μM [1] [%] | % Inhibition HSD3 1 μM [2] [%] | % Inhibition HSD3 10 μM [2] [%] | % Inhibition HSD1 1 μM [3] [%] | % Inhibition HSD1 10 μM [3] [%]
COc1cccc(-c2nc3sc4c(c3c(=O)n2Cc2ccccc2)CCC(Br)C4=O)c1 (stereo not drawn) [No. 80, 3-Benzyl-7-bromo-2-(m-methoxyphenyl)-6,7-dihydro-3H,5H-benzo[4,5]thieno[2,3-d]pyrimidine-4,8-dione] | 47.3 | 51 | 22.7 | 35.4 | 37 | 39.3 | – | – | – | – | – | –
O=c1c2c(nc(CCC3CCCC3)n1CCc1ccccc1)sc1c(O)cccc12 [No. 627] | – | – | – | – | – | – | 27.1 | 22.6 | 10.7 | 33.9 | 25.2 | 26.6
COc1cccc(-c2nc3sc4c(OC(C)=O)cccc4c3c(=O)n2Cc2ccccc2)c1 [No. 84, Acetic acid 3-benzyl-4-oxo-2-(m-methoxyphenyl)-3,4-dihydro-benzo[4,5]thieno[2,3-d]pyrimidin-8-yl ester] | 26.4 | 63.6 | 4 | 33.5 | 10.2 | 22.6 | – | – | – | – | – | –
CCCc1nc2sc3c(c2c(=O)n1Cc1ccc(Br)o1)CCC(Br)(Br)C3=O [No. 104, 7,7-Dibromo-3-(5-bromofuran-2-ylmethyl)-2-propyl-6,7-dihydro-3H,5H-benzo[4,5]thieno[2,3-d]pyrimidine-4,8-dione] | 26.6 | 47.9 | -5 | 51.4 | 20.2 | 42.6 | – | – | – | – | – | –
CCCc1nc2sc3c(c2c(=O)n1Cc1ccc(Br)o1)CCC(Br)C3=O (stereo not drawn) [No. 103, 7-Bromo-3-(5-bromofuran-2-ylmethyl)-2-propyl-6,7-dihydro-3H,5H-benzo[4,5]thieno[2,3-d]pyrimidine-4,8-dione] | 30.7 | 49.7 | -7.7 | 51.8 | 16.2 | 70.6 | – | – | – | – | – | –
O=C(OCCn1c(-c2cccs2)nc2sc3c(c2c1=O)CCC(Br)C3=O)c1cccs1 (stereo not drawn) [No. 71, Thiophene-2-carboxylic acid 2-(7-bromo-4,8-dioxo-2-thiohen-2-yl-5,6,7,8-tetrahydro-4H-benzo[4,5]thieno[2,3-d]pyrimidin-3-yl)-ethyl ester] | 28.9 | 24.5 | 21.9 | 36 | 20.7 | 20.8 | – | – | – | – | – | –
O=c1c2c3c(sc2nc(-c2cccs2)n1Cc1ccccc1)CCCC3 [No. 61, 3-Benzyl-2-thiophen-2-yl-5,6,7,8-tetrahydro-3H-benzo[4,5]thieno[2,3-d]pyrimidin-4-one] | 25.7 | 23.8 | 20 | 26.4 | 17.7 | 26.2 | – | – | – | – | – | –
COc1cc(-c2nc3sc4c(c3c(=O)n2Cc2ccccc2)CCCC4=O)cc(OC)c1OC [No. 2, 3-Benzyl-2-(3,4,5-trimethoxyphenyl)-6,7-dihydro-3H,5H-benzo[4,5]thieno[2,3-d]pyrimidine-4,8-dione] | 1.5 | 33.2 | 11.7 | 40.5 | 17.3 | 58.7 | – | – | – | – | – | –
